From patent US20090117545A1 (priority 2004, published 2009)
Values joined by “and” are separate entries in the source; they are usually repeats but may differ in a detail not shown here. Identical values can stand only once. “Also recorded” adds a separate entry of the source.

Legend:
[1] = tested on: VC II RNA; test: Equilibrium dialysis with 3H-glycine, VC II RNA; type: binding, Vibrio cholerae; details: for restoration of equal distribution of 3H-glycine by unlabeled competitor: VC II 100 μM, excess (1 mM) unlabeled competitor after preequilibration
Procedure: (§1) Methods used for equilibrium dialysis were similar to those described in Mandal et al., Cell 113, 577 (2003). Specifically, equilibrium dialysis assays were conducted using a DispoEquilibrium Dialyzer (Harvard Biosciences), wherein chamber a and b are separated by a 5,000 MWCO membrane. […] Chamber b contained VC II or VC I-II RNA transcripts at 100 μM concentration suspended in the same buffer. Equilibrations were allowed to proceed for 10 hrs at 23° C. Subsequently 5 μL of sample was drawn from each chamber and quantitated by liquid scintillation counting. […] For both RNAs, experiments i-iii (FIG. 4B) were conducted by first pre-equilibrating the chambers (left data point), and then adding unlabeled competitor as indicated followed by a second equilibration (right data point). RNAs were prepared by in vitro transcription using the appropriate PCR DNA templates as described above.
(§2) Other notations are the same as those described for FIG. 1C.

[2] = tested on: VC I-II RNA; test: Equilibrium dialysis with 3H-glycine, VC I-II RNA; type: binding, Vibrio cholerae; details: for restoration of equal distribution of 3H-glycine by unlabeled competitor: VC I-II 100 μM, excess (1 mM) unlabeled competitor after preequilibration
Procedure: as §1, §2

[3] = tested on: gcvT 5'-UTR glycine riboswitch; test: Single-round in vitro transcription termination assay; type: biochemical, Bacillus subtilis; details: for effect on production of full-length RNA transcripts: single-round in vitro transcription
Procedure: Transcription termination assays were conducted as described previously (Sudarsan et al., Genes Dev. 17, 2688 (2003); Landick et al., Methods Enzymol. 274, 334 (1996)).
Transcription assays were performed using a method adapted from that described earlier (Edelstein, Annu. Rev. Biochem. 44, 209 (1975)). […] DNA templates encompassing nucleotides −406 to +7 relative to the translation start site for the gcvT operon in B. subtilis were used. Transcription assays included 20 mM Tris-HCl (pH 8.0 at 23° C.), 20 mM NaCl, 14 mM MgCl2, 0.1 mM EDTA, 0.01 mg/mL BSA, and 1% v/v glycerol. Each reaction (10 μL) contained 1 pmole of template DNA and 9 U E. coli RNA polymerase (Epicenter) and was conducted with the type and concentration of target molecule as indicated for each experiment. Transcription was initiated by the addition of the dinucleotide ApA (135 μM), GTP and UTP (2.5 μM each), ATP (1 μM), and [α-^32P]-ATP (4_Ci). After 5 min incubation at 37° C., 50 μM of each NTP was added along with 0.1 mg/mL heparin to prevent re-initiation by RNA polymerase. Transcription products generated after a 10 minute incubation were separated by denaturing 6% PAGE and visualized by using a PhosphorImager. […] Single-round transcription assays were conducted as described for FIG. 9A. […] Single-round transcription assays were conducted as described for FIG. 9A with 50 μM rNTPs.

[4] = tested on: VC I-II RNA (tandem type I and type II glycine aptamers, VC1422 gene); test: In-line probing of VC I-II RNA; type: binding, Vibrio cholerae; details: for structural modulation (change in pattern of spontaneous cleavage) of VC I-II: ligand at 1 mM
Procedure: In-line probing of the VC I-II construct (FIG. 1B), derived from the VC1422 gene from V. cholerae, was carried out with trace amounts of 5′ ^32P-labeled RNA using methods that are similar to those described elsewhere in Nahvi et al., Chem. Biol. 9, 1043 (2002), and Winkler et al., Nature 419, 952 (2002). RNAs were prepared by transcription from the appropriate DNA template carrying a T7 RNA polymerase promoter, which was generated by PCR from V. cholerae (C6706-st2) genomic DNA using the primers 5′-[sequence]-[sequence] […] The underlined nucleotides identify sequences corresponding to the promoter for T7 RNA polymerase.
In a typical in line probing assay, ˜15 nM of labeled RNA is incubated in buffer (20 mM MgCl2, 50 mM Tris, pH 8.3 at 25° C., 100 mM KCl) in the absence or presence of ligand for 40 hrs at 23° C. After incubation, spontaneously cleaved products were separated using 10% denaturing PAGE and were visualized and quantitated using a PhosphorImager (Molecular Dynamics).
Lowercase letters in FIG. 1B and FIG. 8A identify nucleotides that were added to the construct to permit efficient transcription in vitro using RiboMAX transcription (Promega). For the data presented in FIG. 5, fraction bound equals 1 minus the normalized fraction cleaved in the in-line probing assay at U207-C208 for VC II and U74 for VC I-II.
Curves for the absence of cooperativity (blue curve, n=1) and presence of perfect cooperativity at two binding sites (orange curve, n=2) are depicted. […] The fraction of RNA cleaved at four regions in both RNA constructs was determined by in-line probing. The amount of cleavage was normalized to range from 0 to 1 using the minimum and maximum amounts cleaved for each region.

[5] = tested on: VC II RNA (type II glycine aptamer alone); test: In-line probing of VC II RNA; type: binding, Vibrio cholerae; details: for EC50: in-line probing, read-out: concentration of ligand needed to cause half-maximal structure modulation of VC II
[6] = tested on: variant VC I-II construct wherein aptamer II has been mutated; details: relative to wild-type VC I-II
[7] = tested on: wild-type gcvT IGR fused to β-galactosidase reporter gene; details: amino acid present in growth medium
From the text: Specifically, nucleotides −429 to +7 relative to the B. subtilis gcvT translation start site of the first open reading frame of the gcvT operon was PCR amplified as an EcoRI-BamHI fragment from B. subtilis strain 1A2 (Bacillus Genetic Stock Center, Columbus, Ohio). The wild type construct was cloned into pDG1661 at a site directly upstream of the lacZ reporter gene. […] The IGR used for this study (FIG. 8A) differed in sequence at three nucleotides (151-153, TTT to AAA) relative to the genomic database. Plasmids generated were integrated into the amyE locus of strain 1A2. Transformants were selected for chloramphenicol (5 μg/ml) resistance and screened for sensitivity to spectinomycin (100 μg/ml). Cells were grown in defined media (0.5% w/v glucose, 2 g/L (NH4)2SO4, 25 g/L K2HPO4-3H2O, 6 g/L KH2PO4, 1 g/L sodium citrate, 0.2 g/L MgSO4-7H2O, 2 μM MnCl2, 15 mM glutamate, and 5 mg/L chloramphenicol) to an A595 of 0.1, pelleted, and resuspended in minimal media supplemented with 500 μg/L of amino acid as indicated for each experiment. Cultures were incubated for an additional 3 hr and β-galactosidase assays were performed as described previously (Miller, A Short Course in Bacterial Genetics (Cold Spring Harbor Laboratory Press, Cold Spring Harbor, N.Y., 1992)). Miller units plotted are the average of six values (three assays conducted in duplicate).

N[C@@H](CO)C(=O)O [L-serine]
restoration of equal distribution of 3H-glycine by unlabeled competitor [1]: failed to restore equal distribution | restoration of equal distribution of 3H-glycine by unlabeled competitor [2]: failed to restore equal distribution | effect on production of full-length RNA transcripts [3]: rejected; also recorded: failed to trigger an increase

NCC(=O)O [glycine]
increase in glycine concentration for change from 10% to 90% ligand-bound RNA ([4]; VC I-II): 10 fold | Hill coefficient n ([4]; VC I-II, best fit of four regions, maximum for two sites is 2): 1.64 and 1.64±0.07 | Kd ([4]; VC I-II, best fit of four regions, read-out: constant K of Hill equation): 40 ± 1 µM | structural modulation (change in pattern of spontaneous cleavage) of VC I-II [4]: caused changes in the pattern of spontaneous cleavage | Hill constant n ([5]; VC II, best fit of four regions): 0.97±0.04 | Kd ([5]; VC II, best fit of four regions, read-out: constant K of Hill equation): 24 ± 12 µM | EC50 [5]: ~10 µM | increase in glycine concentration for change from 10% to 90% ligand-bound RNA ([5]; single aptamer RNA, printed as VC I RNA): 100 fold | restoration of equal distribution of 3H-glycine by unlabeled competitor [1]: restored an equal distribution | equivalents of glycine bound by RNA ([1]; three equivalents of glycine versus one equivalent of VC II RNA (100 μM), 1 expected): 0.8 equivalents | restoration of equal distribution of 3H-glycine by unlabeled competitor [2]: restored an equal distribution | increase in the amount of glycine bound by RNA ([2]; one equivalent of VC I-II RNA (two aptamer equivalents) versus VC II, 2 expected): 1.6 fold | glycine concentration at which full-length transcripts are favored ([3]; added to transcription mixture): > 10 µM | effect on production of full-length RNA transcripts [3]: substantial increase in the amount of full-length RNA transcript | Hill coefficient of best-fit curve to transcription data ([3]; yield of full-length transcripts versus glycine): 1.4 | loss of affinity in the unaltered aptamer I [6]: more than 1,000 fold

NCC(=O)NO [glycine hydroxamate]
EC50 [5]: ~1000 µM

COC(=O)CN [glycine methyl ester]
structural modulation (change in pattern of spontaneous cleavage) of VC I-II [4]: measurable structural modulation | EC50 [5]: ~100 µM

CC(C)(C)OC(=O)CN [glycine tertiary butyl ester, glycine tert-butyl ester]
structural modulation (change in pattern of spontaneous cleavage) of VC I-II [4]: measurable structural modulation | EC50 [5]: ~1000 µM

C[C@H](N)C(=O)O [L-alanine]
structural modulation (change in pattern of spontaneous cleavage) of VC I-II [4]: did not induce change | restoration of equal distribution of 3H-glycine by unlabeled competitor [1]: failed to restore equal distribution | restoration of equal distribution of 3H-glycine by unlabeled competitor [2]: failed to restore equal distribution | effect on production of full-length RNA transcripts [3]: failed to trigger an increase | expression of β-galactosidase reporter [7]: low amount of gene expression
